Marks after values point to notes of the source that are not given here.
Legend:
[1] = design: method as in PMID 16731832; conditions: cited from earlier work
[2] = tested on: hGCGR HFD/STZ mice; assay: Antihyperglycemic efficacy in hGCGR HFD/STZ mice (acute, chronic, combination with des-fluoro-sitagliptin); assay type: in vivo, hGCGR mouse; conditions: GRA1 10 mg/kg, Des-F-sita 200 mg/kg
Excerpt: The present study made use of a line of hGCGR-expressing mouse (“hGCGR mouse”) generated previously by substituting the hGCGR gene for the mouse GCGR gene. These mice were crossed with C57BL/6J.ob/+ mice (Jackson Laboratories, Bar Harbor, ME) to obtain an hGCGR.ob/+ mouse line. The hGCGR.ob/+ mice were then intercrossed to obtain hGCGR.ob/ob, hGCGR.ob/+, and hGCGR.+/+ mice (with the hGCGR.ob/+ and hGCGR.+/+ mice serving as littermate controls). […] obese (DIO) hGCGR mice were generated by maintaining hGCGR mice on a high-fat diet (HFD) in which 45–60% of calories were in fat (Product S3282, Bio-Serv, Frenchtown, NJ). High-fat-diet-streptozotocin-treated (HFD/STZ) diabetic mice were generated in-house as previously described.
Acute glucose lowering was studied in non-fasted hGCGR.ob/ob mice and HFD/STZ mice administered single doses p.o. of 1, 3 and 10 mg/kg GRA1 in 10 mL/kg 0.5% aqueous methylcellulose. Animals were fasted during the interval between dosing and the final blood glucose measurement. Glucose was measured in blood from tail bleeds using a OneTouch glucometer. In the experiments with hGCGR HFD/STZ mice, treatment groups were matched with respect to body weight and blood glucose levels.
Animals were dosed chronically with GRA1 and the DPP-4 inhibitor des-fluoro-sitagliptin by administering these agents as food admixtures. The admixtures were prepared in-house and by Research Diets (New Brunswick, NJ), with drug concentrations adjusted weekly on the basis of average food consumption and animal weight to provide targeted daily doses. In the GRA1 experiments, the targeted doses were 3, 6, 10, and 30 mg/kg•day. In des-fluoro-sitagliptin experiments, the targeted dose was 200 mg/kg•day, a relatively high amount necessary because this compound has a half-life in rodents of 1–2 h.
Plasma glucagon and active GLP-1 were measured using commercial ELISA kits (Linco Research Immunoassay, St. Charles, MO). […] Plasma insulin was determined by ELISA with a commercial kit (ALPCO Diagnostics, Windham, NH). Plasma concentrations of glycated hemoglobin A1c (HbA1c) were measured using a Micromat II test kit from Bio-Rad Laboratories (Hercules, CA). Total cholesterol, low-density lipoprotein cholesterol (LDL-c) and non-LDL-c, and aspartate aminotransferase were measured using a Roche P Modular Clinical Chemistry analyzer (Indianapolis, IN).
Figure 5 GRA1 lowers glucose in hGCGR HFD/STZ mice and further enhances the efficacy of a DPP-4 inhibitor. (A) Mean (±SEM) blood glucose hGCGR HFD/STZ mice treated with a single dose of 1, 3, or 10 mg/kg GRA1. (B) Non-fasted blood glucose concentrations in hGCGR HFD/STZ mice treated for 6 weeks with 10 mg/kg·day GRA1, 200 mg/kg·day des-fluoro-sitagliptin (des-F-sita), or the two agents in combination. (Additional data from this study are in Table 4.) *p<0.05, **p<0.01, and ***p<0.001 versus HFD/STZ controls; ^#non-significant (p>0.05) versus non-STZ controls; n = 8–15 animals per group.

[3] = tested on: humans; design: method as in earlier work; conditions: clinical studies in humans, MK-0893 combined with the DPP-4 inhibitor sitagliptin; cited from earlier work

N[C@@H](CC(=O)N1CCn2c(nnc2C(F)(F)F)C1)Cc1cc(F)ccc1F [Des-F-sita, 7-[(3R)-3-amino-1-oxo-4-(2,5-difluorophenyl)butyl]-5,6,7,8-tetrahydro-3-(trifluoromethyl)-1,2,4-triazolo[4,3-α]pyrazine, reference compound]
Half-life in rodents [1]: 1 to 2 h
HbA1c ([2]; 5 weeks of treatment, control diet 6.1±0.4): 5.0±0.4%
6-h fasting blood glucose ([2]; 5 weeks of treatment, control diet 323±33): 283 ± 34 mg/dL
Liver Triglyceride ([2]; 6 weeks, necropsy tissue, control diet 143±10): 94±15* µg/mg
Free fatty acid ([2]; 6 weeks, terminal plasma, control diet 1.4±0.2): 1.1 ± 0.1 mM
Active GLP-1 ([2]; 6 weeks, terminal plasma, control diet 2.5±0.1): 2.9 ± 0.2 pM
Inactive GLP-1 ([2]; 6 weeks, terminal plasma, control diet 8.1±1.1): 3.2±0.2*** pM
Plasma glucagon ([2]; 6 weeks, terminal plasma, control diet 133±21): 87 ± 4 pg/mL
Triglyceride ([2]; 6 weeks, terminal plasma, control diet 184±26): 161 ± 15 mg/dL

COc1ccc2cc(-c3cc(-c4cc(Cl)cc(Cl)c4)nn3[C@@H](C)c3ccc(C(=O)NCCC(=O)O)cc3)ccc2c1 [MK-0893, N-[(4-{(1S)-1-[3-(3,5-Dichlorophenyl)-5-(6-methoxynaphthalen-2-yl)-1H-pyrazol-1-yl]ethyl}phenyl)carbonyl]-beta-alanine]
Glucose-lowering efficacy of combination with sitagliptin [3]: did not result in significant additional glucose-lowering efficacy
